Experimental data: patent publication US20260224566A1, “Obicetrapib and Ezetimibe Combination Treatment and Fixed Dose Pharmaceutical Compositions” (NewAmsterdam Pharma B.V., priority 2023, published 2026)

Tests used:
[1] = TA-8995-04, healthy volunteers; cited from earlier work
[2] = system: ApoE*3-Leiden.CETP transgenic mice; assay: Example 12: plasma lipids, VLDL clearance, LDL receptor, fecal and biliary sterols in ApoE*3-Leiden.CETP mice; format: in vivo, mouse
Text: Obicetrapib is a selective cholesteryl ester transfer protein (CETP) inhibitor currently in clinical development for the treatment of hypercholesterolemia and reduction of cardiovascular risk that strongly reduces Apolipoprotein B (ApoB) and low-density lipoprotein cholesterol (LDL-C) and concomitantly increases plasma high-density lipoprotein cholesterol (HDL-C). Ezetimibe reduces absorption of biliary and dietary cholesterol from the small intestine, thereby reducing LDL-C levels. The current study was carried out to elucidate the mechanism of action responsible for the observed decrease in non-HDL-C by obicetrapib monotherapy and in combination with ezetimibe in a translational mouse model for hyperlipidemia and atherosclerosis.
(§1) The experimental protocol is illustrated in FIG. 71, with time (t) measured in weeks. Female ApoE*3-Leiden.CETP transgenic mice were fed a Western diet with 0.05% w/w cholesterol (equivalent to daily human intake) with (i) no drug (control), or the same diet containing (ii) obicetrapib alone (2 mg/kg/day), (iii) ezetimibe alone (1 mg/kg/day) or (iv) the combination of obicetrapib and ezetimibe. In the experiment, the effects of the treatments on, amongst other things, plasma blood lipids and fecal bile acids and sterols were determined.

[3] = system: ApoE*3-Leiden.CETP transgenic mice; assay: Example 13: plasma cholesterol and atherosclerosis development in aortic root of ApoE*3-Leiden.CETP mice; format: in vivo, mouse
Experimental: The current study was carried out to evaluate the effect of obicetrapib monotherapy and a combination of obicetrapib+ezetimibe on atherosclerosis development in a translational mouse model for hyperlipidemia and atherosclerosis.
as §1, with “82,” for “71,”, “(on average 0.6” for “(1”, “ezetimibe.” for “ezetimibe. In the experiment, the effects of the treatments on, amongst other things, plasma blood lipids and fecal bile acids and sterols were determined.”

CETP = target: T1, CETP (Homo sapiens, UniProt P11597); assay: Example 13: CETP activity and mass in ApoE*3-Leiden.CETP mice; format: in vivo, mouse
T1 construct: from tissue; host or cells: female ApoE*3-Leiden.CETP transgenic mice dosed in vivo
T1 sequence (P11597 18-493): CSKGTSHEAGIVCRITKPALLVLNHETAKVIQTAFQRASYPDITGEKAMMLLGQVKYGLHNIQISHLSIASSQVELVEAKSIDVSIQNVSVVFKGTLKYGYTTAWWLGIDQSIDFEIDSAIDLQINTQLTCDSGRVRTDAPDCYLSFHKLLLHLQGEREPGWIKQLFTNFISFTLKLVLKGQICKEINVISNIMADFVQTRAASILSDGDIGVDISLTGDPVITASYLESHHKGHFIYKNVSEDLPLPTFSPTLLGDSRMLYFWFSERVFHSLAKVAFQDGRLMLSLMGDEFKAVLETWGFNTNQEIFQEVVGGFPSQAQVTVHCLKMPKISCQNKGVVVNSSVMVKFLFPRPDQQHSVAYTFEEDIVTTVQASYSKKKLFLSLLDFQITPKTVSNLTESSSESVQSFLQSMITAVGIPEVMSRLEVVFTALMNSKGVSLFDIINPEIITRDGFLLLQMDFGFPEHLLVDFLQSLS
Experimental: as §1, with “82,” for “71,”, “(on average 0.6” for “(1”, “ezetimibe.” for “ezetimibe. In the experiment, the effects of the treatments on, amongst other things, plasma blood lipids and fecal bile acids and sterols were determined.”

[4] = system: critical physiological systems; conditions: rats, doses up to 300 mg/kg; cited from earlier work
[5] = system: patients with mild dyslipidemia; conditions: cited from earlier work
[6] = obicetrapib 2 mg/kg/day, ezetimibe 1 mg/kg/day in Western diet
[7] = aortic root, 28 weeks of treatment
[8] = obicetrapib 2 mg/kg/day, ezetimibe on average 0.6 mg/kg/day in Western diet

## CCOC(=O)N1c2ccc(C(F)(F)F)cc2[C@@H](N(Cc2cc(C(F)(F)F)cc(C(F)(F)F)c2)c2ncc(OCCCC(=O)O)cn2)C[C@H]1CC [obicetrapib, {4-[(2-{[3,5-bis(trifluoromethyl)benzyl] [(2R,4S)-1-(ethoxycarbonyl)-2-ethyl-6-(trifluoromethyl)-1,2,3,4-tetrahydroquinolin-4-yl]amino}pyrimidin-5-yl)oxy]butanoic acid}]
[1]
  effect on the QTcF: no effect
[2]; FIG. 74
  triglycerides levels: decreased
[2]; FIG. 77
  liver uptake of VLDL like particles: increased
[2]; FIG. 78
  plasma pcsk-9 levels: decreased
[2]; FIG. 81
  cholesterol balance: decreased
[2]; not shown
  biliary bile acids and biliary bile acid flow: did not affect
  biliary phospholipids and biliary phospholipid flow: did not affect
[2]; obicetrapib 2 mg/kg/day in Western diet
  fecal bile acid excretion, change: +41%
[2]; [6]
  ApoA1 levels, increase: 98%
  HDL-C, change: +260%
  half-life of VLDL-like particles, change: −44%
  hepatic LDL receptor expression, change: +63%
  non-HDL-C levels, change: −61%
  total plasma cholesterol levels, change: −42%
[3]; FIG. 84B
  HDL-cholesterol: increases
[3]; [7]
  percentage of unaffected segments, increase: +347%
  severe lesions (types IV-V), change: −82%
[3]; aortic root, 28 weeks of treatment, versus control
  total atherosclerotic lesion size, change: −90%
[3]; [8]
  non-HDL-C levels, change: −53%
  total plasma cholesterol levels, change: −31%
[3]; versus control animals, FIG. 90B
  lesion number: statistically significant reductions
CETP; FIG. 87B
  cetp mass: without statistically significant changes
CETP; [8]
  CETP activity, change: −98%
[4]
  adverse effect on critical physiological systems: no adverse effect
[5]; TA-8995-03, 10 mg daily dose
  HDL-C efflux capacity: significant increase
[5]; TA-8995-03, obicetrapib 10 mg
  additional reduction in LDL-C on top of atorvastatin 20 mg: 50.3%
